A word on the IC50: it is the concentration needed to halve the response being measured. The low end stands for greater potency in that assay, the high end for weaker potency in that assay.

The values below come from patent publication US20260356856A1, “KRAS G12S AND G12C INHIBITORS” (MIRATI THERAPEUTICS, INC., priority 2023, published 2026).

The target in one test is T1, KRas G12C (Homo sapiens, UniProt P01116, G12C).
T1 construct: Biotinylated KRas (corresponding to amino acids 1-169, produced at Accelegan Inc.); biotin (biotinylated); purchased Accelegan Inc
T1 sequence (P01116 1-169 isoform P01116-2 G12C): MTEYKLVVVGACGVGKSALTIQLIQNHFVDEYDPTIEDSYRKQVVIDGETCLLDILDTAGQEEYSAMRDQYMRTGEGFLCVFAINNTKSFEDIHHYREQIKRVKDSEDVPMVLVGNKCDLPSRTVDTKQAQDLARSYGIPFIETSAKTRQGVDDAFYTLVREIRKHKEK
The test can be described thus: KRas binding assay, TR-FRET displacement of Cy5 labelled tracer. To be noted: 60-minute incubation at room temperature, 1% DMSO, pH 7.5. The method, boiled down: (§1)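 Truncated KRas (1-169), biotinylated, Tb-streptavidin donor; one-hour room-temperature incubation; IC50 by four-parameter curve fitting.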

The target in another test is T2, KRas G12S (Homo sapiens, UniProt P01116, G12S).
T2 construct: Biotinylated KRas (corresponding to amino acids 1-169, produced at Accelegan Inc.); biotin (biotinylated); purchased Accelegan Inc
T2 sequence (P01116 1-169 isoform P01116-2 G12S): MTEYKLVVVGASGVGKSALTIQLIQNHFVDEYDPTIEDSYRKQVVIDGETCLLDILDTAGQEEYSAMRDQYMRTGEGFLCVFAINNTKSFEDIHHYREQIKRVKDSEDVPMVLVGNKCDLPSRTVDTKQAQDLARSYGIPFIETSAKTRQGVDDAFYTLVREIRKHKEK
The description is as above. To be noted: 60-minute incubation at room temperature, 1% DMSO, pH 7.5. The method in brief:
as §1

Another test deals with T3, KRas WT (Homo sapiens, UniProt P01116).
T3 construct: Biotinylated KRas (corresponding to amino acids 1-169, produced at Accelegan Inc.); biotin (biotinylated); purchased Accelegan Inc
T3 sequence (P01116 1-169 isoform P01116-2): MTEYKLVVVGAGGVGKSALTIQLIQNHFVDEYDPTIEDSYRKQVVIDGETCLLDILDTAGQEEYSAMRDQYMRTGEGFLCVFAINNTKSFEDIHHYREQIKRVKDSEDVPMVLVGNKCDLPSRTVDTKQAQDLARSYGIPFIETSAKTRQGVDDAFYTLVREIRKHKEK
The description is as above. To be noted: 60-minute incubation at room temperature, 1% DMSO, pH 7.5. The method in brief:
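Displacement measured on KRas residues 1-169 (biotinylated, terbium-streptavidin labelled); 1 h, RT; 1% DMSO final; HEPES pH 7.5 / MgCl2 / Tween-20 / DTT. IC50: 4-parameter fit.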

The target of test [1] is T4, KRas-mediated phosphorylation of ERK in MKN1 cells (Homo sapiens, UniProt P01116).
T4 construct: pERK HTRF read-out
T4 sequence (P01116 1-188 isoform P01116-2): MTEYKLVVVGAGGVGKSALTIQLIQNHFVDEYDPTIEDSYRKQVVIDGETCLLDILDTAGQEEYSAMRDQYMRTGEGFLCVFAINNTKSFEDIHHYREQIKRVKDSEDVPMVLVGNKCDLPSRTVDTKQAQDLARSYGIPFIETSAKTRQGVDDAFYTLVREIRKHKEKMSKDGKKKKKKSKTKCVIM
Put plainly: Inhibition of KRas-mediated phosphorylation of ERK (HTRF), MKN1 cells. It counts as cell-based. To be noted: MKN1 cells (KRas WT); HTRF pERK; 3 h incubation. How it is done:
Inhibition of KRas Phosphorylation of ERK (HTRF) by Exemplary Compounds of Formula (Ia) or (Ib)
Cisbio HTRF Advanced pERK Assay Catalog #64AERPEH • Cells: MKN1, PSN1 • Procedure: • 1. Day 1: Seed 6,000 cells/well −25 μl/well in 384-well white solid bottom plate; RPM1_10% FBS. Incubate overnight at 37 °C/5% CO2. • 2.

The target of test [2] is T5, KRas-mediated phosphorylation of ERK in A549 cells (Homo sapiens, UniProt P01116, G12S).
T5 construct: pERK HTRF read-out
T5 sequence (P01116 1-188 isoform P01116-2 G12S): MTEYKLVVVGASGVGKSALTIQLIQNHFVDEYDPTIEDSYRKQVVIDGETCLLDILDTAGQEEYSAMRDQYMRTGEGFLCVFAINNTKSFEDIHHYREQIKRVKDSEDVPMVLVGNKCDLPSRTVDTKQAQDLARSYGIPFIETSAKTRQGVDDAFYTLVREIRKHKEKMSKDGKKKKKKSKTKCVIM
Put plainly: Inhibition of KRas-mediated phosphorylation of ERK (HTRF), A549 cells. Conditions: HTRF pERK, 3 h incubation. The class given is cell-based. In general terms: Time-resolved FRET reads energy transfer from a long-lived donor to a nearby acceptor.

Regarding `Cc1ccn(C(=O)C2CCN(c3nc(OC[C@@]45CCCN4C/C(=C\F)C5)nc4c(F)c(-c5ccc(F)c6sc(N)c(C#N)c56)c(Cl)cc34)CC2)n1` [Example 135, 2-amino-4-(6-chloro-8-fluoro-2-(((S,Z)-2-(fluoromethylene)tetrahydro-1H-pyrrolizin-7a(5H)-yl)methoxy)-4-(4-(3-methyl-1H-pyrazole-1-carbonyl)piperidin-1-yl)quinazolin-7-yl)-7-fluorobenzo[b]thiophene-3-carbonitrile], the IC50 on KRas G12C was 9 nM; on KRas G12S, 6 nM; on KRas WT, 11 nM; in test [1] it was 83 nM; in test [2], 6 nM.

As for `Cc1ccn(C(=O)C2CCCCN(c3nc(OC[C@@]45CCCN4C[C@H](F)C5)nc4c(F)c(-c5ccc(F)c6sc(N)c(C#N)c56)c(Cl)cc34)C2)n1` (stereo partly drawn) [Example 136, 2-amino-4-(6-chloro-8-fluoro-2-(((2R,7aS)-2-fluorotetrahydro-1H-pyrrolizin-7a(5H)-yl)methoxy)-4-(3-(3-methyl-1H-pyrazole-1-carbonyl)azepan-1-yl)quinazolin-7-yl)-7-fluorobenzo[b]thiophene-3-carbonitrile], the IC50 at KRas G12C was 16 nM; on KRas G12S, 17 nM; on KRas WT, 23 nM; in test [1], 13 nM; in test [2], 249 nM.

`Cc1ccn(C(=O)C2CCCCN(c3nc(OC[C@@]45CCCN4C[C@H](F)C5)nc4c(F)c(-c5ccc(F)c6sc(N)c(C#N)c56)c(Cl)cc34)CC2)n1` (stereo partly drawn) [Example 137, 2-amino-4-(6-chloro-8-fluoro-2-(((2R,7aS)-2-fluorotetrahydro-1H-pyrrolizin-7a(5H)-yl)methoxy)-4-(4-(3-methyl-1H-pyrazole-1-carbonyl)azocan-1-yl)quinazolin-7-yl)-7-fluorobenzo[b]thiophene-3-carbonitrile]: the half-inhibitory concentration (IC50) at KRas G12C turned out to be 13 nM; on KRas G12S, 10 nM; on KRas WT, 44 nM; in test [1], 142 nM; in test [2], 29 nM.

For the compound `CCc1c(F)ccc2cc(O)cc(N3CCc4c(nc(OC[C@@]56CCCN5C[C@H](F)C6)nc4N4CCCCC(C(=O)n5ccc(C)n5)C4)C3)c12` (stereo partly drawn) [Example 147, (1-(7-(8-ethyl-7-fluoro-3-hydroxynaphthalen-1-yl)-2-(((2R,7aS)-2-fluorotetrahydro-1H-pyrrolizin-7a(5H)-yl)methoxy)-5,6,7,8-tetrahydropyrido[3,4-d]pyrimidin-4-yl)azepan-3-yl)(3-methyl-1H-pyrazol-1-yl)methanone], the 50% inhibitory concentration (IC50) at KRas G12C was 16 nM; on KRas G12S it was 37 nM; on KRas WT it was 45 nM; in test [1] it was 45 nM; in test [2] it was 1210 nM.

Consider `CCc1c(F)ccc2cc(O)cc(N3CCc4c(nc(OC[C@@]56CCCN5C[C@H](F)C6)nc4N4CCCCC(C(=O)n5ccc(C)n5)CC4)C3)c12` (stereo partly drawn) [Example 148, (1-(7-(8-ethyl-7-fluoro-3-hydroxynaphthalen-1-yl)-2-(((2R,7aS)-2-fluorotetrahydro-1H-pyrrolizin-7a(5H)-yl)methoxy)-5,6,7,8-tetrahydropyrido[3,4-d]pyrimidin-4-yl)azocan-4-yl)(3-methyl-1H-pyrazol-1-yl)methanone], for which the IC50 turned out to be 19 nM on KRas G12C; 10 nM at KRas G12S; 147 nM at KRas WT; 108 nM in test [1]; 140 nM in test [2].

In the case of `CCc1c(F)ccc2cc(O)cc(N3CCc4c(nc(OC[C@@]56CCCN5C[C@H](F)C6)nc4N4CCCC(C(=O)n5ccc(C)n5)CCC4)C3)c12` [Example 149, (1-(7-(8-ethyl-7-fluoro-3-hydroxynaphthalen-1-yl)-2-(((2R,7aS)-2-fluorotetrahydro-1H-pyrrolizin-7a(5H)-yl)methoxy)-5,6,7,8-tetrahydropyrido[3,4-d]pyrimidin-4-yl)azocan-5-yl)(3-methyl-1H-pyrazol-1-yl)methanone], the IC50 is 3740 nM on KRas G12C; 1470 nM at KRas G12S; 1310 nM at KRas WT; 6530 nM in test [1]; greater than 10000 nM in test [2].

As to `CCc1c(F)ccc2cc(O)cc(-c3ncc4c(NC[C@@H]5C[C@H]5C(=O)n5ccc(C)n5)nc(OC[C@@]56CCCN5C[C@H](F)C6)nc4c3F)c12` [Example 158, ((1R,2R)-2-(((7-(8-ethyl-7-fluoro-3-hydroxynaphthalen-1-yl)-8-fluoro-2-(((2R,7aS)-2-fluorotetrahydro-1H-pyrrolizin-7a(5H)-yl)methoxy)pyrido[4,3-d]pyrimidin-4-yl)amino)methyl)cyclopropyl)(3-methyl-1H-pyrazol-1-yl)methanone], the half-maximal inhibitory concentration (IC50) at KRas G12C worked out at 29 nM; on KRas G12S, 23 nM; at KRas WT it was 13 nM; in test [1] it was 112 nM; in test [2], 126 nM.

Take `CCc1c(F)ccc2cc(O)cc(-c3ncc4c(N5C[C@H]6C[C@H](C(=O)n7ccc(C)n7)C[C@H]6C5)nc(OC[C@@]56CCCN5C[C@H](F)C6)nc4c3F)c12` [Example 160, ((3aR,5R,6aS)-2-(7-(8-ethyl-7-fluoro-3-hydroxynaphthalen-1-yl)-8-fluoro-2-(((2R,7aS)-2-fluorotetrahydro-1H-pyrrolizin-7a(5H)-yl)methoxy)pyrido[4,3-d]pyrimidin-4-yl)octahydrocyclopenta[c]pyrrol-5-yl)(3-methyl-1H-pyrazol-1-yl)methanone]: the 50% inhibitory concentration (IC50) came to 1790 nM on KRas G12C; 461 nM at KRas G12S; 258 nM on KRas WT; 3690 nM in test [1]; 3380 nM in test [2].

For `CCc1c(F)ccc2cc(O)cc(-c3ncc4c(N(C)CCCS(=O)(=O)n5ccnc5)nc(OC[C@@]56CCCN5C[C@H](F)C6)nc4c3F)c12` [Example 163, 4-(4-((3-((1H-imidazol-1-yl)sulfonyl)propyl)(methyl)amino)-8-fluoro-2-(((2R,7aS)-2-fluorotetrahydro-1H-pyrrolizin-7a(5H)-yl)methoxy)pyrido[4,3-d]pyrimidin-7-yl)-5-ethyl-6-fluoronaphthalen-2-ol], the IC50 amounted to 131 nM at KRas G12C; 129 nM on KRas G12S; 98 nM on KRas WT; 1250 nM in test [1]; 7590 nM in test [2].

With `CCc1c(F)ccc2cc(O)cc(-c3ncc4c(N5CCC(C(=O)N(C)C(=O)C(C)C)CC5)nc(OC[C@@]56CCCN5C[C@H](F)C6)nc4c3F)c12` [Example 166, 1-(7-(8-ethyl-7-fluoro-3-hydroxynaphthalen-1-yl)-8-fluoro-2-(((2R,7aS)-2-fluorotetrahydro-1H-pyrrolizin-7a(5H)-yl)methoxy)pyrido[4,3-d]pyrimidin-4-yl)-N-isobutyryl-N-methylpiperidine-4-carboxamide], the IC50 was determined as 310 nM on KRas G12C; 203 nM at KRas G12S; 229 nM on KRas WT; 622 nM in test [1]; 1780 nM in test [2].

Turning to `CCc1c(F)ccc2cc(O)cc(-c3ncc4c(N5CCCC(C(=O)n6ccc(C)n6)CC5)nc(OC[C@@H]5CCCN5C)nc4c3F)c12` (stereo partly drawn) [Example 168, (1-(7-(8-ethyl-7-fluoro-3-hydroxynaphthalen-1-yl)-8-fluoro-2-(((S)-1-methylpyrrolidin-2-yl)methoxy)pyrido[4,3-d]pyrimidin-4-yl)azepan-4-yl)(3-methyl-1H-pyrazol-1-yl)methanone], the IC50 worked out at 384 nM on KRas G12C; 72 nM at KRas G12S; 1380 nM on KRas WT; 8690 nM in test [1]; 245 nM in test [2].
